# Data taken from the supplement of paper PMC11061612.
# How the values were obtained:
# Test in all cases: Bliss excess, mean over the matrix (fraction); higher = more synergy
# [1] = system: TE-5 (Esophageal Squamous Cell Carcinoma)
# In short: (§1)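 Bliss excess equals the observed combination effect minus the expected value EA + EB − EA·EB, where EA and EB are the effects of each agent alone. Combination Emax is the second-highest inhibition within the matrix. Inhibition was scaled from CellTiter-Glo 2.0 luminescence, with 0 set by vehicle wells and 1 by blank wells, after 72 hours of two-drug dosing of cells plated in 1536-well plates.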
# [2] = system: J82 (Bladder Carcinoma)
# In short: as §1
# [3] = system: SW780 (Bladder Carcinoma)
# In short: as §1
# [4] = system: NCI-H1694 (Small Cell Lung Carcinoma)
# In short: as §1
# [5] = system: KARPAS-1106P (B-Cell Non-Hodgkin's Lymphoma)
# In short: as §1
# [6] = system: NCI-H2595 (Mesothelioma)
# In short: as §1
# [7] = system: NCI-H2369 (Mesothelioma)
# In short: as §1
# [8] = system: MFH-ino (Other Solid Carcinomas)
# In short: as §1
# [9] = system: SW1990 (Pancreatic Carcinoma)
# In short: as §1
# [10] = system: HT-29 (Colorectal Carcinoma)
# In short: as §1
# [11] = system: RH-1 (Ewing's Sarcoma)
# In short: as §1
# [12] = system: SW1088 (Low Grade Glioma)
# In short: as §1
# [13] = system: G-292-Clone-A141B1 (Osteosarcoma)
# In short: as §1
# [14] = system: DMS-273 (Small Cell Lung Carcinoma)
# In short: as §1
# [15] = system: MDA-MB-231 (Breast Carcinoma)
# In short: as §1
# [16] = system: COR-L23 (Non-Small Cell Lung Carcinoma)
# In short: as §1
# [17] = system: SW756 (Cervical Carcinoma)
# In short: as §1
# [18] = system: COR-L95 (Small Cell Lung Carcinoma)
# In short: as §1
# [19] = system: KM-H2 (Hodgkin's Lymphoma)
# In short: as §1
# [20] = system: CFPAC-1 (Pancreatic Carcinoma)
# In short: as §1
SMILES,Bliss excess [1],Bliss excess [2],Bliss excess [3],Bliss excess [4],Bliss excess [5],Bliss excess [6],Bliss excess [7],Bliss excess [8],Bliss excess [9],Bliss excess [10],Bliss excess [11],Bliss excess [12],Bliss excess [13],Bliss excess [14],Bliss excess [15],Bliss excess [16],Bliss excess [17],Bliss excess [18],Bliss excess [19],Bliss excess [20]
"CC1(C)CCC(CN2CCN(c3ccc(C(=O)NS(=O)(=O)c4ccc(NCC5CCOCC5)c([N+](=O)[O-])c4)c(Oc4cnc5[nH]ccc5c4)c3)CC2)=C(c2ccc(Cl)cc2)C1 [Venetoclax] + C=CCn1c(=O)c2cnc(Nc3ccc(N4CCN(C)CC4)cc3)nc2n1-c1cccc(C(C)(C)O)n1 [AZD1775] (first compound max 1 µM, partner max 1 µM)",-0.0412,-0.0832,-0.0244,0.0226,0.0627,-0.0316,-0.0134,-0.0222,0.0206,0.008,-0.0123,-0.003,-0.0023,-0.0711,-0.0666,-0.0609,-0.0401,0.001,0.02,-0.0185
"CN(CCO)CC[C@H](CSc1ccccc1)Nc1ccc(S(=O)(=O)NC(=O)c2ccc(N3CCC([C@@H](O)c4ccccc4-c4ccc(Cl)cc4)CC3)cc2)cc1S(=O)(=O)C(F)(F)F [AZD4320] + CCN(CCO)CCCOc1ccc2c(Nc3cc(CC(=O)Nc4cccc(F)c4)[nH]n3)ncnc2c1 [AZD2811] (first compound max 1 µM, 7x7, partner max 1 µM)",0.0379,-0.0304,0.028,0.169,0.0326,-0.032,0.0005,-0.0406,-0.0214,-0.0074,-0.0551,-0.0659,0.0019,-0.0732,0.0602,-0.0343,-0.0334,0.0522,-0.0035,-0.0754
"CCN(CCO)CCCOc1ccc2c(Nc3cc(CC(=O)Nc4cccc(F)c4)[nH]n3)ncnc2c1 [AZD2811] + C[C@@H]1COCCN1C2=NC(=NC(=C2)C3(CC3)[S@](=N)(=O)C)C4=C5C=CNC5=NC=C4 [AZD6738] (first compound max 1 µM, 7x7, partner max 10 µM)",-0.0582,-0.0259,-0.0262,-0.0073,-0.0713,-0.0491,-0.0621,-0.0878,-0.0555,-0.0459,-0.0414,-0.103,-0.12,-0.0332,-0.103,-0.0192,-0.0095,-0.0658,-0.0249,-0.0932
"CC(=O)c1c(C)c2cnc(Nc3ccc(N4CCNCC4)cn3)nc2n(C2CCCC2)c1=O [Palbociclib] + Cc1c2c(nn1C)CSCc1cc(n(C)n1)CSc1cc(c3ccccc3c1)OCCCc1c(C(=O)O)n(C)c3c-2c(Cl)ccc13 [AZD5991] (first compound max 10 µM, 7x7, partner max 1 µM)",-0.0284,-0.0174,-0.0441,-0.073,-0.0645,-0.0622,-0.0593,-0.042,-0.0427,0.0058,-0.0722,0.0212,-0.0371,-0.0565,-0.0424,-0.0472,-0.0749,-0.0112,-0.0228,-0.0063
"COc1cc2c(cc1OCCCCCOc1cc3c(cc1OC)C(=O)N1C=C(C)C[C@H]1C=N3)N=C[C@@H]1CC(C)=CN1C2=O [SG3199] + O=C(c1cc(Cc2n[nH]c(=O)c3ccccc23)ccc1F)N1CCN(C(=O)C2CC2)CC1 [Olaparib] (first compound max 0.001 µM, 7x7, partner max 10 µM)",-0.0665,0.0123,-0.0497,-0.0222,-0.0202,-0.0437,-0.035,-0.0739,-0.049,-0.0261,-0.0035,-0.0511,-0.0571,0.002,-0.0808,0.0285,0.0091,-0.0224,0.0232,-0.0329
"Cn1cnc2c(F)c(Nc3ccc(Br)cc3Cl)c(C(=O)NOCCO)cc21 [Selumetinib] + C=CCn1c(=O)c2cnc(Nc3ccc(N4CCN(C)CC4)cc3)nc2n1-c1cccc(C(C)(C)O)n1 [AZD1775] (first compound max 10 µM, partner max 1 µM)",-0.0514,-0.0614,-0.0555,-0.067,-0.0358,-0.0443,-0.0624,-0.0316,0.0134,-0.0432,-0.0491,-0.0468,-0.0458,0.0035,-0.0337,0.0308,-0.0882,-0.0464,-0.0685,-0.0439
"CC1(C)CCC(CN2CCN(c3ccc(C(=O)NS(=O)(=O)c4ccc(NCC5CCOCC5)c([N+](=O)[O-])c4)c(Oc4cnc5[nH]ccc5c4)c3)CC2)=C(c2ccc(Cl)cc2)C1 [Venetoclax] + CN(C)CCCOc1ccc(-c2ccc3ncc4c(c3c2)n(C2CCOCC2)c(=O)n4C)cn1 [AZD0156] (first compound max 1 µM, 7x7, partner max 1 µM)",-0.0248,0.0014,-0.0031,-0.0001,0.0261,0.0103,-0.0298,-0.0403,-0.0056,-0.0086,-0.0098,-0.0651,-0.0367,0.0156,0.0067,-0.0064,-0.0215,0.0051,-0.0012,0.0025
"CC(=O)c1c(C)c2cnc(Nc3ccc(N4CCNCC4)cn3)nc2n(C2CCCC2)c1=O [Palbociclib] + Cn1cnc2c(F)c(Nc3ccc(Br)cc3Cl)c(C(=O)NOCCO)cc21 [Selumetinib] (first compound max 10 µM, 7x7, partner max 10 µM)",-0.0511,-0.0538,-0.0008,-0.0989,0.0399,-0.0429,-0.0483,-0.0237,-0.0228,0.0336,-0.0379,-0.0327,-0.0291,-0.0393,0.0613,0.0224,-0.0736,-0.0843,0.0036,-0.0354
"Cn1cnc2c(F)c(Nc3ccc(Br)cc3Cl)c(C(=O)NOCCO)cc21 [Selumetinib] + C[C@@H]1COCCN1C2=NC(=NC(=C2)C3(CC3)[S@](=N)(=O)C)C4=C5C=CNC5=NC=C4 [AZD6738] (first compound max 10 µM, 7x7, partner max 10 µM)",-0.0388,0.0262,0.0087,-0.0037,-0.0007,-0.0326,-0.0338,0.0029,-0.0653,-0.019,-0.0215,-0.0737,-0.0303,-0.0676,-0.025,-0.0148,0.0323,-0.0778,-0.0148,-0.0112
"COc1cccc(OCCCN)c1-c1cc(Nc2cnc(C#N)cn2)n[nH]1 [Prexasertib] + CCc1c2c(nc3ccc(O)cc13)-c1cc3c(c(=O)n1C2)COC(=O)[C@]3(O)CC [SN-38] (first compound max 1 µM, 7x7, partner max 0.3 µM)",-0.0476,-0.0177,-0.0348,0.0037,-0.124,0.0211,0.0148,-0.0321,-0.0551,-0.0022,-0.0177,0.0128,0.0081,0.0356,0.0723,0.0388,-0.0542,-0.121,-0.0411,-0.107
"CN(C)CCCOc1ccc(-c2ccc3ncc4c(c3c2)n(C2CCOCC2)c(=O)n4C)cn1 [AZD0156] + CCN(CCO)CCCOc1ccc2c(Nc3cc(CC(=O)Nc4cccc(F)c4)[nH]n3)ncnc2c1 [AZD2811] (first compound max 1 µM, 7x7, partner max 1 µM)",-0.0536,0.0201,-0.0268,0.0516,-0.0003,-0.0334,-0.0392,-0.0453,-0.0536,-0.0109,-0.0337,-0.0291,-0.0669,0.0307,-0.0296,-0.0073,-0.016,-0.0116,0.0446,-0.0713
"NC1(C(=O)N[C@@H](CCO)c2ccc(Cl)cc2)CCN(c2ncnc3[nH]ccc23)CC1 [Capivasertib] + CC(C)n1c(=O)n(C)c2cnc3cc(F)c(-c4ccc(OCCCN5CCCCC5)nc4)cc3c21 [AZD1390] (first compound max 10 µM, 7x7, partner max 0.3 µM)",-0.0254,-0.0659,-0.0715,-0.0081,-0.0004,-0.0609,-0.0104,-0.0771,-0.05,-0.0376,-0.0292,-0.0822,-0.0453,-0.0281,-0.102,-0.0579,-0.0647,-0.0425,-0.0554,-0.0828
